From US10562902B2, “IRAK4 inhibitor and use thereof” (BEIJING HANMI PHARMACEUTICAL CO., LTD., priority 2015, dated 2020)
pIC50: −log10 of the molar value.

Target: IRAK4 kinase (Homo sapiens (Human), UniProt Q9NWZ3)
Experiment: IRAK4 kinase activity inhibition assay
Type: biochemical
Settings: ADP-Glo kinase assay, 10 μM ATP, MBP substrate
Protocol: IRAK4 kinase (purchased from Life Technologies, Cat. No.: PR5612U) was diluted to 2 folds of the final concentration (the final concentration is […]) with reaction buffer (40 mM Tris-HC1, pH 7.5; 20 mM MgCl2; 0.1 mg/mL BSA; 1 mM DTT), and added to a 384-well plate at 5 μL/well. The test drugs were 10-fold serial diluted from 10 μM to set six concentration points and added to the test wells of the 384-well plate at 2.5 μL/well. After incubation for 10 min at 25° C., 10 μM of ATP and 0.1 μg/μL of an enzyme reaction substrate, myelin basic protein MBP (purchased from Signal Chem, Cat. No.: M42-51N) were added at 2.5 μL/well, and reacted at 25° C. for 60 minutes. After the reaction was completed, the kinase activity assay was performed using the ADP-Glo™ kinase assay kit (purchased from Promega, Cat. No.: V9102) according to the manufacture's instruction, i.e., 10 μL of ADP-Glo reaction reagent was first added and reacted at 25° C. for 40 minutes, 10 μL of the reaction mixture was taken and mixed with 10 μL of ADP-Glo detection reagent, and reacted at 25° C. for 30 minutes. The kinase activity was then detected, and the IC50 values of the test drugs were calculated.

Chain of IRAK4 kinase (Q9NWZ3 whole entry): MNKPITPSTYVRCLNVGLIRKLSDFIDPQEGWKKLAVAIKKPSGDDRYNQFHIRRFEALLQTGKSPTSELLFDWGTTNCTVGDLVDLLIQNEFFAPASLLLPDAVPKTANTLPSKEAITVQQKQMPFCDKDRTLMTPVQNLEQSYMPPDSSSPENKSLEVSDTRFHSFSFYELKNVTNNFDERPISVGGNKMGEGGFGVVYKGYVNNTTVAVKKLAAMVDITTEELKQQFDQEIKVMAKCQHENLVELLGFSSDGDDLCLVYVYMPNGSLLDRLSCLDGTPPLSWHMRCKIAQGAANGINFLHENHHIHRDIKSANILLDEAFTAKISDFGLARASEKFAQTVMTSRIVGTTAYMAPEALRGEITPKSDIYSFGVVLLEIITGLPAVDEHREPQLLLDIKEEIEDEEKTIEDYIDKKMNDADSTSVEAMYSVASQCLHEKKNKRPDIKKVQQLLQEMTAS

| pIC50 | Structure (SMILES) |
| --- | --- |
| 6.00 to 7.00 | Cc1cc(Nc2nc(OC3CCOCC3)c3c(ccn3-c3ccccc3)n2)sn1 [Example 92] |
| 5.00 to 6.00 | CNC(=O)c1csc(Nc2nc(O[C@H]3CCOC3)c3c(ccn3-c3cnn(C)c3)n2)n1 [Example 165] |
| 6.00 to 7.00 | CN(C)C(=O)c1cc(Nc2nc(NC3CCOCC3)c3c(ccn3-c3cnn(C)c3)n2)cs1 [Example 52] |
| ≥ 7.00 | CNC(=O)c1cc(Nc2nc(O[C@@H]3CCOC3)c3c(ccn3-c3cnn(C)c3)n2)cs1 [Example 157] |
| 5.00 to 6.00 | COc1cccc(-n2ccc3nc(Nc4cc(C)ns4)nc(OC4CCOCC4)c32)c1 [Example 94] |
| 6.00 to 7.00 | Cc1cc(Nc2nc(OC3CCN(C)CC3)c3c(ccn3-c3cnn(C)c3)n2)sn1 [Example 72] |
| ≥ 7.00 | CCNC(=O)c1csc(Nc2nc(O[C@@H]3CCOC3)c3c(ccn3-c3cnn(C)c3)n2)c1 [Example 131] |
| 6.00 to 7.00 | Cc1cc(Nc2nc(OC3CCOCC3)c3c(ccn3-c3cccc4c3OCCO4)n2)sn1 [Example 104] |
| 6.00 to 7.00 | Cn1cc(Nc2nc(N[C@H]3CC[C@H](O)CC3)c3c(ccn3-c3cnn(C)c3)n2)cn1 [Example 46] |
| 5.00 to 6.00 | COc1ccc(-n2ccc3nc(Nc4cc(C)ns4)nc(OC4CCOCC4)c32)cc1 [Example 95] |
| 6.00 to 7.00 | Cc1cc(Nc2nc(NC3CCCCC3)c3c(ccn3-c3cnn(C)c3)n2)sn1 [Example 22] |
| 5.00 to 6.00 | Cc1cc(Nc2nc(OC3CCOCC3)c3c(ccn3-c3cccc(N(C)C)c3)n2)sn1 [Example 96] |
| ≥ 7.00 | CNC(=O)c1csc(Nc2nc(O[C@H]3CCOC3)c3c(ccn3-c3ccoc3)n2)c1 [Example 126] |
| ≥ 7.00 | Cn1cc(-n2ccc3nc(Nc4ccc5c(c4)CNC5=O)nc(O[C@H]4CCOC4)c32)cn1 [Example 120] |
| ≥ 7.00 | Cn1cc(-n2ccc3nc(Nc4cc(C(=O)NC5CC5)cs4)nc(O[C@H]4CCOC4)c32)cn1 [Example 143] |
| ≥ 7.00 | CCNC(=O)c1csc(Nc2nc(NC3CCOCC3)c3c(ccn3-c3cnn(C)c3)n2)c1 [Example 49] |
| ≥ 7.00 | CN1CCC(NC(=O)c2csc(Nc3nc(O[C@H]4CCOC4)c4c(ccn4-c4cnn(C)c4)n3)c2)CC1 [Example 145] |
| ≥ 7.00 | CN(C)C(=O)c1csc(Nc2nc(O[C@H]3CCOC3)c3c(ccn3-c3cnn(C)c3)n2)c1 [Example 149] |
| ≥ 7.00 | CN1CCN(C(=O)c2csc(Nc3nc(O[C@H]4CCOC4)c4c(ccn4-c4cnn(C)c4)n3)c2)CC1 [Example 151] |
| 6.00 to 7.00 | Cc1cc(Nc2nc(OC3CCOCC3)c3c(ccn3-c3ccncc3)n2)sn1 [Example 97] |
| 6.00 to 7.00 | Cn1cc(-n2ccc3nc(Nc4ccc(C#N)s4)nc(O[C@H]4CCOC4)c32)cn1 [Example 79] |
| 6.00 to 7.00 | Cc1cc(Nc2nc(O[C@H]3CCOC3)c3c(ccn3-c3cnn(C)c3)n2)on1 [Example 83] |
| ≥ 7.00 | Cn1cc(-n2ccc3nc(Nc4cc(C(=O)NCCF)cs4)nc(O[C@H]4CCOC4)c32)cn1 [Example 137] |
| 6.00 to 7.00 | Cc1cc(Nc2nc(O[C@H]3CCOC3)c3c(ccn3-c3ccncc3)n2)sn1 [Example 100] |

| pIC50 | Structure (SMILES) |
| --- | --- |
| 6.00 to 7.00 | CC(=O)NCCCNc1nc(Nc2cc(C)ns2)nc2ccn(-c3cnn(C)c3)c12 [Example 9] |
| 6.00 to 7.00 | CC(=O)NCCNc1nc(Nc2cc(C)ns2)nc2ccn(-c3cnn(C)c3)c12 [Example 8] |
| 6.00 to 7.00 | Cc1cc(Nc2nc(OC3CCCN(C)C3)c3c(ccn3-c3cnn(C)c3)n2)sn1 (centres unmarked) [Example 69] |
| 6.00 to 7.00 | Cc1cc(Nc2nc(N[C@@H]3CCOC3)c3c(ccn3-c3cnn(C)c3)n2)sn1 [Example 20] |
| ≥ 7.00 | CN1CCC(NC(=O)c2cc(Nc3nc(O[C@H]4CCOC4)c4c(ccn4-c4cnn(C)c4)n3)cs2)CC1 [Example 162] |
| 6.00 to 7.00 | CO[C@H]1CC[C@@H](Nc2nc(Nc3cc(C)ns3)nc3ccn(-c4cnn(C)c4)c23)CC1 [Example 25] |
| 6.00 to 7.00 | Cc1cc(Nc2nc(N[C@H]3CC[C@](C)(O)CC3)c3c(ccn3-c3cnn(C)c3)n2)sn1 [Example 24] |
| 6.00 to 7.00 | Cc1cc(Nc2nc(NCCN3CCOCC3)c3c(ccn3-c3cnn(C)c3)n2)sn1 [Example 10] |
| ≥ 7.00 | Cn1cc(-n2ccc3nc(Nc4cc(C(=O)N[C@H]5CCOC5)cs4)nc(O[C@H]4CCOC4)c32)cn1 [Example 147] |
| ≥ 7.00 | CCNC(=O)c1csc(Nc2nc(OC(C)C)c3c(ccn3-c3cnn(C)c3)n2)c1 [Example 127] |
| 6.00 to 7.00 | Cc1cc(Nc2nc(OC3CCOCC3)c3c(ccn3-c3ccnnc3)n2)sn1 [Example 102] |
| 6.00 to 7.00 | Cc1cc(Nc2nc(OC3CCC3)c3c(ccn3-c3cnn(C)c3)n2)sn1 [Example 60] |
| ≥ 7.00 | Cn1cc(-n2ccc3nc(Nc4cn[nH]c4)nc(O[C@H]4CCOC4)c32)cn1 [Example 106] |
| 6.00 to 7.00 | Cn1cc(-n2ccc3nc(Nc4cnoc4)nc(O[C@H]4CCOC4)c32)cn1 [Example 115] |
| ≥ 7.00 | Cn1cc(-n2ccc3nc(Nc4cnn(C5CCOCC5)c4)nc(O[C@H]4CCOC4)c32)cn1 [Example 110] |
| 6.00 to 7.00 | CN(C)C(=O)c1cc(Nc2nc(OC3CCOCC3)c3c(ccn3-c3cnn(C)c3)n2)cs1 [Example 174] |
| ≥ 7.00 | CNC(=O)c1csc(Nc2nc(OC3CCOCC3)c3c(ccn3-c3cnn(C)c3)n2)c1 [Example 167] |
| 6.00 to 7.00 | COC1CCC(Oc2nc(Nc3cc(C)ns3)nc3ccn(-c4cnn(C)c4)c23)CC1 (centres unmarked) [Example 68] |
| ≥ 7.00 | Cc1cc(Nc2nc(NCCCCO)c3c(ccn3-c3cnn(C)c3)n2)sn1 [Example 5] |
| 6.00 to 7.00 | Cc1cc(Nc2nc(N[C@H]3C[C@@H](N4CCCCC4)C3)c3c(ccn3-c3cnn(C)c3)n2)sn1 [Example 15] |
| ≥ 7.00 | Cn1cc(-n2ccc3nc(Nc4ccc[nH]4)nc(O[C@H]4CCOC4)c32)cn1 [Example 77] |
| 5.00 to 6.00 | Cn1cc(-n2ccc3nc(Nc4csc5ccccc45)nc(O[C@H]4CCOC4)c32)cn1 [Example 85] |
| 6.00 to 7.00 | Cc1cc(Nc2nc(N[C@H]3CC[C@H](N4CCCCC4)CC3)c3c(ccn3-c3cnn(C)c3)n2)sn1 [Example 28] |
| 6.00 to 7.00 | Cn1cc(-n2ccc3nc(Nc4ccccc4)nc(O[C@H]4CCOC4)c32)cn1 [Example 116] |

| pIC50 | Structure (SMILES) |
| --- | --- |
| ≥ 7.00 | CN1Cc2cc(Nc3nc(O[C@H]4CCOC4)c4c(ccn4-c4cnn(C)c4)n3)ccc2C1=O [Example 121] |
| ≥ 7.00 | CC(C)NC(=O)c1csc(Nc2nc(O[C@H]3CCOC3)c3c(ccn3-c3cnn(C)c3)n2)c1 [Example 136] |
| 6.00 to 7.00 | CNC(=O)c1ccc(Nc2nc(O[C@H]3CCOC3)c3c(ccn3-c3cnn(C)c3)n2)s1 [Example 164] |
| ≥ 7.00 | Cn1cc(-n2ccc3nc(Nc4cnn(-c5cccnc5)c4)nc(O[C@H]4CCOC4)c32)cn1 [Example 114] |
| ≥ 7.00 | Cn1cc(-n2ccc3nc(Nc4cc(C(N)=O)cs4)nc(O[C@H]4CCOC4)c32)cn1 [Example 132] |
| ≥ 7.00 | Cn1cc(-n2ccc3nc(Nc4cc(C(=O)N5CCS(=O)(=O)CC5)cs4)nc(O[C@H]4CCOC4)c32)cn1 [Example 154] |
| 6.00 to 7.00 | CC(=O)N1CCC(Oc2nc(Nc3cc(C)ns3)nc3ccn(-c4cnn(C)c4)c23)CC1 [Example 73] |
| ≥ 7.00 | Cc1cc(Nc2nc(OC3CCCCC3)c3c(ccn3-c3cnn(C)c3)n2)sn1 [Example 66] |
| ≥ 7.00 | Cn1cc(-n2ccc3nc(Nc4ccc5[nH]ncc5c4)nc(O[C@H]4CCOC4)c32)cn1 [Example 123] |
| ≥ 7.00 | Cc1cc(Nc2nc(OC(C)C)c3c(ccn3-c3cnn(C)c3)n2)sn1 [Example 54, [4-isopropoxy-5-(1-methyl-1H-pyrazol-4-yl)-5H-pyrrolo[3,2-d]pyrimidin-2-yl]-(3-methylisothiazol-5-yl)amine] |
| ≥ 7.00 | Cn1cc(Nc2nc(O[C@H]3CCOC3)c3c(ccn3-c3cnn(C)c3)n2)cn1 [Example 105, (S)-(1-methyl-1H-pyrazol-4-yl)-[5-(1-methyl-1H-pyrazol-4-yl)-4-(tetrahydrofuran-3-yloxy)-5H-pyrrolo[3,2-d]pyrimidin-2-yl]amine] |
| 6.00 to 7.00 | Cc1cc(Nc2nc(OC3CCOCC3)c3c(ccn3-c3ccsc3)n2)sn1 [Example 89] |
| 6.00 to 7.00 | Cc1cc(Nc2nc(O[C@H]3CCOC3)c3c(ccn3-c3cnn(C)c3)n2)cs1 [Example 82] |
| 6.00 to 7.00 | Cc1cc(Nc2nc(NC(C)C)c3c(ccn3-c3ccc4c(c3)OCO4)n2)sn1 [Example 43] |
| ≥ 7.00 | Cc1cc(Nc2nc(OC3COC3)c3c(ccn3-c3cnn(C)c3)n2)sn1 [Example 61] |
| 6.00 to 7.00 | Cc1cc(Nc2nc(OC3CCOCC3)c3c(ccn3-c3ccn(C)c3)n2)sn1 [Example 86] |
| ≥ 7.00 | CNC(=O)c1cc(Nc2nc(O[C@H]3CCOC3)c3c(ccn3-c3cnn(C)c3)n2)cs1 [Example 159] |
| ≥ 7.00 | COCCNC(=O)c1csc(Nc2nc(O[C@H]3CCOC3)c3c(ccn3-c3cnn(C)c3)n2)c1 [Example 139] |
| 6.00 to 7.00 | Cc1cc(Nc2nc(NC3CCN(C)CC3)c3c(ccn3-c3cnn(C)c3)n2)sn1 [Example 30] |
| ≥ 7.00 | CN1CCC(n2cc(Nc3nc(O[C@H]4CCOC4)c4c(ccn4-c4cnn(C)c4)n3)cn2)CC1 [Example 111] |
| 5.00 to 6.00 | Cc1cc(Nc2nc(NC(C)C)c3c(ccn3-c3ccc(N)nc3)n2)sn1 [Example 39] |
| ≥ 7.00 | Cc1cc(Nc2nc(NCCCO)c3c(ccn3-c3cnn(C)c3)n2)sn1 [Example 4] |
| 5.00 to 6.00 | Cc1cc(Nc2nc(NC(C)C)c3c(ccn3-c3cccc4c3cnn4C)n2)sn1 [Example 44] |
